Data as given in PMC5216056 (Nature Communications, 2017).
Entries after “also recorded” stand apart in the source; their conditions may differ.

How the values were obtained:
[1] = in vitro; conditions: both, human, microsomes, pH 7.4
[2] = in vitro; conditions: male, C57BL/6J, mouse, microsomes, pH 7.4
[3] = system: sigma (non-selective) (h); format: binding, human; conditions: 10 µM
[4] = target: T1, 5-HT2A (h) (Homo sapiens, UniProt P28223); assay: CEREP panel; format: binding; conditions: for % inhibition 5-HT2A (h): 10 µM
T1 construct: CEREP (contract assay)

[5] = target: human P-gp (Homo sapiens, UniProt P08183); conditions: efflux ratio
[6] = target: T2, D1 (h) (Homo sapiens, UniProt P21728); assay: CEREP panel; format: binding; conditions: for % inhibition D1 (h): 10 µM
T2 construct: CEREP (contract assay)

[7] = target: T3, beta 2 (h) (Homo sapiens, UniProt P07550); assay: CEREP panel; format: binding; conditions: 10 µM
T3 construct: CEREP

[8] = target: T4, mCB2R (Mus musculus, UniProt P47936); assay: PathHunter β-arrestin recruitment assay; format: cell-based
[9] = target: T4, mCB2R; assay: Operational analysis of biased signalling
[10] = target: T4, mCB2R; assay: [35S]GTPγS assay; format: biochemical; parameters: from tissue; host or cells: spleen of male C57BL/6J mice
[11] = system: C57BL6/J mice; assay: Triad assay: catalepsy; format: in vivo, mouse; conditions: mouse, in vivo
[12] = system: C57BL6/J mice; assay: Triad assay: antinociception; format: in vivo, mouse; conditions: mouse, in vivo
[13] = system: C57BL6/J mice; assay: Triad assay: hypothermia; format: in vivo, mouse; conditions: mouse, in vivo
[14] = target: T5, MT1 (ML1A) (h) (Homo sapiens, UniProt P48039); assay: CEREP panel; format: binding; conditions: 10 µM; read-out: % inhibition MT1 (ML1A) (h)
T5 construct: CEREP (contract assay)
T5 sequence (P48039 whole entry): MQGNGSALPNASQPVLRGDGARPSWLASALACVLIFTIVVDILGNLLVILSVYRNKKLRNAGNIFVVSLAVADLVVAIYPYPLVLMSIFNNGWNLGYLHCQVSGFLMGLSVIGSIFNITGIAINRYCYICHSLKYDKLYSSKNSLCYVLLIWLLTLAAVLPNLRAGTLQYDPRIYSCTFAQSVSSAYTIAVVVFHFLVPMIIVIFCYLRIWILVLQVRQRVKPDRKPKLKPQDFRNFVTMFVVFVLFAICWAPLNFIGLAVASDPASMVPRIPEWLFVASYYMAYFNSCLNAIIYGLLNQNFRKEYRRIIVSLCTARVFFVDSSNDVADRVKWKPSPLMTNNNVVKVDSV

Sequence of human P-gp (P08183 whole entry): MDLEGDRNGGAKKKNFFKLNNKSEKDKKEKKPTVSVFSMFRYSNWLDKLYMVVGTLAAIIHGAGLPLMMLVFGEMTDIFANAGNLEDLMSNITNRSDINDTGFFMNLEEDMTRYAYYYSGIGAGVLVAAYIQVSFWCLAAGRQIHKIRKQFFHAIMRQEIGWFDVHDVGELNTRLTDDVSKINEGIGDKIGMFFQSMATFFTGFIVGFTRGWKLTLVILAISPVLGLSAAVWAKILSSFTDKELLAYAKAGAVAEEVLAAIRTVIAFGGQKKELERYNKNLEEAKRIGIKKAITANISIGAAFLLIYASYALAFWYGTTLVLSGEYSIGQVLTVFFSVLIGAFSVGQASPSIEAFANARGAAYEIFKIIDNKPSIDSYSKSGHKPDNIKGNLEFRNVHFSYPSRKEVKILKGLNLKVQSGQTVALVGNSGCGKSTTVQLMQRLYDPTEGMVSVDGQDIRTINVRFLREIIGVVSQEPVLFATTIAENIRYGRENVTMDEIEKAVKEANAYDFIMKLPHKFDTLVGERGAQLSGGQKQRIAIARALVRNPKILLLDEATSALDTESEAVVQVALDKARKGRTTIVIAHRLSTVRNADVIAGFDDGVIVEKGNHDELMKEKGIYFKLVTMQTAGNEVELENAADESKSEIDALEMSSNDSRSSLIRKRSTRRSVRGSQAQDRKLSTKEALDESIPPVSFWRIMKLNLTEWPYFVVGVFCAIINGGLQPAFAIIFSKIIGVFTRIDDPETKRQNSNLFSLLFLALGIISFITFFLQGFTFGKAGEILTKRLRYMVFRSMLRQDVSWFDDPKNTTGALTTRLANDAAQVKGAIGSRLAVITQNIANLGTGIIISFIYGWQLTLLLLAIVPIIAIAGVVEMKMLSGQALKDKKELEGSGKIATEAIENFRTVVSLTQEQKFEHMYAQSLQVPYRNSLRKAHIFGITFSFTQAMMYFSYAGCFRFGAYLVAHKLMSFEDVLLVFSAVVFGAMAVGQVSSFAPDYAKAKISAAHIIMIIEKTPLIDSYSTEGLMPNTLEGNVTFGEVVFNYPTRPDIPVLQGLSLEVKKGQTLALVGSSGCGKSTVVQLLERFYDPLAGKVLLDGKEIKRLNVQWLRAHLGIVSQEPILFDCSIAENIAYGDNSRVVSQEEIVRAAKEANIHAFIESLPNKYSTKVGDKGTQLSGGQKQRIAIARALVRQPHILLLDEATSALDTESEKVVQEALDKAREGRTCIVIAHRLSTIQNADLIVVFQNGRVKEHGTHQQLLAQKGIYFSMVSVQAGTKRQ
T1 sequence (P28223 whole entry): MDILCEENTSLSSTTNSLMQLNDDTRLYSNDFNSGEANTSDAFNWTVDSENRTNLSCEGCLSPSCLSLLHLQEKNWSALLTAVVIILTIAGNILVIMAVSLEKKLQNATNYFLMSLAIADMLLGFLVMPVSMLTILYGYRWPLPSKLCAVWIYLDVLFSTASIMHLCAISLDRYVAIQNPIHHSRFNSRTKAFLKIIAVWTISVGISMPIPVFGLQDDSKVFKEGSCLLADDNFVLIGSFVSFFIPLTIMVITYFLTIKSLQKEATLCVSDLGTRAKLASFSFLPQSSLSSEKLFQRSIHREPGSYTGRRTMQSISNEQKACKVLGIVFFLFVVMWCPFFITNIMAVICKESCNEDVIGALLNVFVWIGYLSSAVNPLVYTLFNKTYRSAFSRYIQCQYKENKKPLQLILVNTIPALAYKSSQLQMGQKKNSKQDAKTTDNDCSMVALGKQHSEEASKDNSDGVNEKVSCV
T2 sequence (P21728 whole entry): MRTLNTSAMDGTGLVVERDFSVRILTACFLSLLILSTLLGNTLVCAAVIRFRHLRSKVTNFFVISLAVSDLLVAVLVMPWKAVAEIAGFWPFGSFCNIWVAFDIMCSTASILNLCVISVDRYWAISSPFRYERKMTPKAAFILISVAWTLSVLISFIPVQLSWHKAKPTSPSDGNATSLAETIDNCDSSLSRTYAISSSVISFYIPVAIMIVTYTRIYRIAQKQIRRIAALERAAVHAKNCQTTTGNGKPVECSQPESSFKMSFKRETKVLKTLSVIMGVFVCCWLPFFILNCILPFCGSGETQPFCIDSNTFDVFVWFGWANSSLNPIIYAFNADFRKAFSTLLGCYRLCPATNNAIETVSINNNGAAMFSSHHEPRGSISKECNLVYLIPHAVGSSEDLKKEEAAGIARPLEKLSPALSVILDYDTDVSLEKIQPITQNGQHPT
T4 sequence (P47936 whole entry): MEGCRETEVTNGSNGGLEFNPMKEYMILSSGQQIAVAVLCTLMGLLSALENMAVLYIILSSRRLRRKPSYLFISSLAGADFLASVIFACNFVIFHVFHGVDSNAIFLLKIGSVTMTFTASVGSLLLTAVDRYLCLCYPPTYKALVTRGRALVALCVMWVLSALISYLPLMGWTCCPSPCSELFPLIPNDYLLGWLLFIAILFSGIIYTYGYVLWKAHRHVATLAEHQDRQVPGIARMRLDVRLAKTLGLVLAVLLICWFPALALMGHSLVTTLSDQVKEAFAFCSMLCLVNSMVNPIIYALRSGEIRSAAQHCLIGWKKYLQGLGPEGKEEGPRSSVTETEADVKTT
T3 sequence (P07550 whole entry): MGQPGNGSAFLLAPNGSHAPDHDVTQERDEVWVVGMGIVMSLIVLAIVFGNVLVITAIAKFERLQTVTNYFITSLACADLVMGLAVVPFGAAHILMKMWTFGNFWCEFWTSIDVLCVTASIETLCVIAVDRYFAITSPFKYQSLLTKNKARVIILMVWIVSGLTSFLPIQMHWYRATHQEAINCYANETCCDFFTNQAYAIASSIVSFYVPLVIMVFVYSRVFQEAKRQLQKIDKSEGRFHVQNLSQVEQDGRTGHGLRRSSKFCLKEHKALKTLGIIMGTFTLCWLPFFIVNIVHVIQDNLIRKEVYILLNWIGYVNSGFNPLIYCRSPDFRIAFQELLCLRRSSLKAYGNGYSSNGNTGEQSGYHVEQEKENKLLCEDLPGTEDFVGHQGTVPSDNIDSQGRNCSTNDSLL

## CCCCC/C=C\C/C=C\C/C=C\C/C=C\CCCC(=O)OC(CO)CO [2-AG, 2-arachidonoyl glycerol]
[1]
  microsomal CLint: 13 µL/min/mg
[2]
  microsomal CLint: 12 µL/min/mg

## CN1CCCC[C@H]1Cn1cc(C(=O)c2cc([N+](=O)[O-])ccc2I)c2ccccc21 [(S)-AM1241]
[3]
  % inhibition sigma (non-selective) (h): 101%
[4]
  % inhibition 5-HT2A (h): 67%
other
  Plasma protein binding mouse: 1.2 %free
[5]
  P-gp (ER) human: 2.7

## Cc1c(C(=O)NN2CCCCC2)nn(-c2ccc(Cl)cc2Cl)c1-c1ccc(I)cc1 [AM251]
[6]
  % inhibition D1 (h): 58%

## COc1ccc(C(=O)c2c(C)n(CCN3CCOCC3)c3cc(I)ccc23)cc1 [AM630]
[7]
  % inhibition beta 2 (h): 11%
[4]
  % inhibition 5-HT2A (h): 70%
other
  Plasma protein binding mouse: 0.4 %free
[5]
  P-gp (ER) human: 1.3

## CCCCC/C=C\C/C=C\C/C=C\C/C=C\CCCC(=O)NCCO [Anandamide, N-arachidonoylethanolamine]
[1]
  microsomal CLint: 47 µL/min/mg
[2]
  microsomal CLint: 222 µL/min/mg

## CCCCCCC(C)(C)c1ccc([C@@H]2C[C@H](O)CC[C@H]2CCCO)c(O)c1 [CP55940]
[8]
  EC50: 9.55 nM
[8]; read-out: Emax ± SEM β-AR recruitment mCB2R
  Emax: 96 ± 1%
[9]
  GTPγS-cAMP bias factor (BF): 1
  GTPγS-cAMP ΔΔlogR: 0 ± 0.21
  LogR GTPγS: 7.82 ± 0.05
  LogR cAMP: 10.52 ± 0.14
  LogR β-AR: 8.0 ± 0.06
  β-AR-GTPγS bias factor (BF): 1
  β-AR-GTPγS ΔΔlogR: 0 ± 0.10
  β-AR-cAMP bias factor (BF): 1
  β-AR-cAMP ΔΔlogR: 0 ± 0.21
[9]; reference CP55940
  ΔLogR GTPγS: 0 ± 0.07
  ΔLogR cAMP: 0 ± 0.20
  ΔLogR β-AR: 0 ± 0.08
[9]; relative effectiveness
  RE GTPγS: 1.00
  RE cAMP: 1.00
  RE β-AR: 1.00
[6]
  inhibition at 10 µM: 77%
[4]
  inhibition at 10 µM: 95%
[1]
  microsomal CLint: 80 µL/min/mg
[2]
  microsomal CLint: 172 µL/min/mg
[10]
  EC50: 16.2 nM
[10]; read-out: Emax ± SEM GTPγS mCB2R
  Emax: 102 ± 1%

## Cc1ccc2c(c1)Cc1c(C(=O)NN3CCCCC3)nn(-c3ccc(Cl)cc3Cl)c1-2 [Gp-1a]
[3]
  % inhibition sigma (non-selective) (h): 51%
[6]
  % inhibition D1 (h): 63%
[5]
  P-gp (ER) human: 1.0

## CCCn1c(C)c(C(=O)c2cccc3ccccc23)c2ccccc21 [JWH015]
[4]
  % inhibition 5-HT2A (h): 56%

## Cc1c(C(=O)NN2CCCCC2)nn(-c2ccc(Cl)cc2Cl)c1-c1ccc(Cl)cc1 [SR141716A]
[11]
  antagonism of HU210-induced catalepsy: attenuated; also recorded: significantly antagonized
[12]
  antagonism of HU210-induced antinociception: attenuated; also recorded: significantly antagonized
[13]
  antagonism of HU210-induced hypothermia: attenuated; also recorded: significantly antagonized
[14]
  inhibition at 10 µM: 62%
[1]
  microsomal CLint: 20 µL/min/mg
[2]
  microsomal CLint: 109 µL/min/mg

## Cc1c(C(=O)c2cccc3ccccc23)c2cccc3c2n1[C@H](CN1CCOCC1)CO3 [WIN55212-2]
other
  Plasma protein binding mouse: 1.0 %free
